# Measured values as given in US9474281B2, “Fungicidal composition and method for controlling plant diseases” (ISHIHARA SANGYO KAISHA, LTD., priority 2008, dated 2016).
# Values joined by “and” are separate entries in the source; they are usually repeats but may differ in a detail not shown here. Equal values may be shown once.
# How the values were obtained:
# Sphaerotheca cucurbitae = assay: Test on preventive effect against cucumber powdery mildew; assay type: in vivo; set-up: scale not given here; settings: applied alone
# Protocol: Cucumber (cultivar: Suyo) was cultivated in a plastic pot having a diameter of 7.5 cm, and when it reached 1.5-leaf stage, 10 ml of a chemical solution having the compound of the present invention adjusted to a prescribed concentration, was applied by a spray gun. After the chemical solution dried, a suspension of conidia of Sphaerotheca cucurbitae was sprayed and inoculated and maintained in a constant temperature chamber at 20° C. From 9 to 10 days after the inoculation, the area of sporulation was investigated, and the disease rate was determined in the same manner as in Test Example 1, and the results are shown in Tables 5 to 20. The average lesion area in the non-treated plot was determined in the same manner as for the treated plot except that water was applied by a spray gun instead of the chemical solution.
# Further, theoretical values by the Colby's formula are shown in brackets in Tables 5 to 20.
# Erysiphe graminis = assay: Test on preventive effect against wheat powdery mildew; assay type: in vivo; set-up: key: lesion area as % of non-treated plot: (treated/non-treated)×100; settings: applied alone
# Protocol: Wheat (cultivar: Norin-61-go) was cultivated in a plastic pot having a diameter of 7.5 cm, and when it reached 1.5-leaf stage, 10 ml of a chemical solution having each test compound adjusted to a prescribed concentration, was applied by a spray gun in an amount of 1000 L/ha. After the chemical solution dried, conidia of Erysiphe graminis were dusted and inoculated and maintained in a constant temperature chamber at 20° C. From 6 to 8 days after the inoculation, the area of sporulation was investigated, and the disease rate was determined in accordance with the following formula, and the results are shown in Tables 1 to 4. The average lesion area in the non-treated plot was determined in the same manner as for the treated plot except that water was applied by a spray gun instead of the chemical solution. Disease rate=(a/b)×100
# a: average lesion area in the treated plot
# b: average lesion area in the non-treated plot
# Theoretical values were calculated in accordance with the Colby's formula. The fungicidal composition of the present invention has a synergistic effect regarding the test on preventive effect against wheat powdery mildew, when the experimental value is lower than the theoretical value. Theoretical values by the Colby's formula in such cases are shown in brackets in Tables 1 to 4.
compound,measurement,setting,value
"CC(=O)Oc1c(C)c(C)nc2c(F)cc(C(C)(C)C)cc12 [6-t-butyl-8-fluoro-2,3-dimethylquinolin-4-yl acetate]",Disease rate,Sphaerotheca cucurbitae; 6.3 ppm,83.6
same,Disease rate,Sphaerotheca cucurbitae; 12.5 ppm,63.9
same,Disease rate,Sphaerotheca cucurbitae; 25 ppm,59.0
same,Disease rate,Sphaerotheca cucurbitae; 50 ppm,34.4
O=C(Nc1ccccc1-c1ccc(Cl)cc1)c1cccnc1Cl [Boscalid],Disease rate,Sphaerotheca cucurbitae; 6.3 ppm,43.0
same,Disease rate,Sphaerotheca cucurbitae; 12.5 ppm,43.0
same,Disease rate,Sphaerotheca cucurbitae; 25 ppm,25.8
"COc1cc(C)c(C(=O)c2c(OC)ncc(Cl)c2C)c(OC)c1OC [Compound No. 35, 3-(2,3,4-trimethoxy-6-methylbenzoyl)-5-chloro-2-methoxy-4-methylpyridine]",Disease rate,Erysiphe graminis; 0.8 ppm,70 and 100
same,Disease rate,Erysiphe graminis; 1.6 ppm,70 and 100
same,Disease rate,Erysiphe graminis; 3.1 ppm,100
same,Disease rate,Erysiphe graminis; 6.3 ppm,60
"COc1cc(C)c(C(=O)c2c(Cl)cnc(Cl)c2C(F)(F)F)c(OC)c1OC [Compound No. 39, 4-(2,3,4-trimethoxy-6-methylbenzoyl)-2,5-dichloro-3-trifluoromethylpyridine]",Disease rate,Erysiphe graminis; 1.6 ppm,85
same,Disease rate,Erysiphe graminis; 3.1 ppm,75
same,Disease rate,Erysiphe graminis; 6.3 ppm,60
"COc1cc(C)c(C(=O)c2c(OC)cnc(Cl)c2C(F)(F)F)c(OC)c1OC [Compound No. 40, 4-(2,3,4-trimethoxy-6-methylbenzoyl)-2-chloro-3-trifluoromethyl-5-methoxypyridine]",Disease rate,Erysiphe graminis; 0.8 ppm,50
same,Disease rate,Sphaerotheca cucurbitae; 1.6 ppm,43.0
CC1COC(Cn2cncn2)(c2ccc(Oc3ccc(Cl)cc3)cc2Cl)O1 (stereo not shown) [Difenoconazole],Disease rate,Erysiphe graminis; 12.5 ppm,85
same,Disease rate,Erysiphe graminis; 25 ppm,70
same,Disease rate,Erysiphe graminis; 50 ppm,40
"C/C=C/C(=O)Oc1c(C(C)CCCCCC)cc([N+](=O)[O-])cc1[N+](=O)[O-] (stereo not shown) [Mepthyldinocap, Meptyldinocap]",Disease rate,Sphaerotheca cucurbitae; 0.8 ppm,75
same,Disease rate,Sphaerotheca cucurbitae; 1.6 ppm,60
same,Disease rate,Sphaerotheca cucurbitae; 3.1 ppm,60
CC(C)CC(C)c1sccc1NC(=O)c1cn(C)nc1C(F)(F)F (stereo not shown) [Penthiopyrad],Disease rate,Sphaerotheca cucurbitae; 0.4 ppm,77.4
same,Disease rate,Sphaerotheca cucurbitae; 0.8 ppm,51.6
same,Disease rate,Sphaerotheca cucurbitae; 1.6 ppm,17.2
COC(=O)N(OC)c1ccccc1COc1ccn(-c2ccc(Cl)cc2)n1 [Pyraclostrobin],Disease rate,Erysiphe graminis; 100 ppm,100
same,Disease rate,Erysiphe graminis; 200 ppm,100
same,Disease rate,Erysiphe graminis; 400 ppm,100
COC(=O)NCc1cc(/C(C)=N/OCc2cccc(C)n2)ccc1Cl [Pyribencarb],Disease rate,Sphaerotheca cucurbitae; 12.5 ppm,73.0
same,Disease rate,Sphaerotheca cucurbitae; 25 ppm,63.2
same,Disease rate,Sphaerotheca cucurbitae; 50 ppm,63.2
COc1ccccc1N1CCS/C1=C(/C#N)Sc1cc(C(F)(F)F)ccc1F [flutianil],Disease rate,Sphaerotheca cucurbitae; 0.0063 ppm,95
same,Disease rate,Sphaerotheca cucurbitae; 0.0125 ppm,85
same,Disease rate,Sphaerotheca cucurbitae; 0.025 ppm,65
"S1SSSSSSS1 [sulfur, Sulfur]",Disease rate,Sphaerotheca cucurbitae; 6.3 ppm,98.0
same,Disease rate,Sphaerotheca cucurbitae; 12.5 ppm,88.2
same,Disease rate,Sphaerotheca cucurbitae; 25 ppm,68.6
CC1CCN(C2C(c3c(F)cc(F)cc3F)=C(Cl)N=C3N=CNN32)CC1 (stereo not shown) [the compound of the formula (II)],Disease rate,Sphaerotheca cucurbitae; 0.8 ppm,88.1
same,Disease rate,Sphaerotheca cucurbitae; 3.1 ppm,17.2
same,Disease rate,Sphaerotheca cucurbitae; 6.3 ppm,8.6
